The subject of assay [1] is Mexican bean beetle (Epilachna varivestis, Muls.). The assay can be described thus: Mexican Bean Beetle Leaf Spray Test. In kind it is in vivo. Further details: key to pesticidal activity rating, Bean beetle: A: excellent control; B: partial control; C: no control. The protocol:
Fourth instar larvae of the Mexican bean beetle (Epilachna varivestis, Muls.), reared on Tendergreen bean plants at a temperature of 80°±5° F. and 50±5 percent relative humidity, were the test insects.
The test compounds were formulated by diluting the stock suspension with water to give a suspension containing 500 parts of test compound per million parts of final formulation. Potted Tendergreen bean plants of standard height and age were placed on a revolving turntable and sprayed with 100-110 milliliters of test compound formulation by use of a DeVilbiss spray gun set at 10 psig air pressure. This application, which lasted 25 seconds, was sufficient to wet plants to run-off. As a control, 100-110 milliliters of a water-acetone-emulsifier solution containing no test compound were also sprayed on infested plants. When dry, the paired leaves were separated and each was placed in a 9 centimeter Petri dish lined with moistened filter paper. Five randomly selected larvae were introduced into each dish, and the dishes were closed. The closed dishes were labeled and held at a temperature of 80°±5° F. for 3 days. Although the larvae could easily consume the leaf within 24 to 48 hours, no more food was added. Larvae which were unable to move the length of the body, even upon stimulation, were considered dead.
In these tests the pesticidal activity of the compounds against aphid, mite, Southern Armyworm, Bean Beetle and House fly was rated as follows:
(§1) The LD50 values shown in the above Table II were determined by testing the compositions over an appropriate concentration range obtained by serial dilution of the stock suspension with water. The percent kill was plotted on log-probit graph paper versus parts per million concentration, and the LD50 read from an eye-fitted line drawn through the resultant points.

For the next assay, the system named is mites. Put plainly: Systemic miticidal activity (soil drench of infested bean plants). Particulars: Table II. It is filed as in vivo, Tetranychus urticae Koch. The protocol:
Adults and nymphal stages of the two-spotted mite (Tetranychus urticae Koch), reared on Tendergreen bean plants at 80±5 percent relative humidity, were the test organisms. Infested leaves from a stock culture were placed on the primary leaves of two bean plants 6 to 8 inches in height, growing in a 21/2 inch clay pot. 150-200 Mites, a sufficient number for testing, transferred from the excised leaves to the fresh plants in a period of 24 hours. Following the 24 hour transfer period, the excised leaves were removed from the infested plants. The test compounds were formulated by diluting the stock suspension with water to give a suspension containing 500 parts of test compound per million parts of final formulation. The potted plants (one pot per compound) were placed on a revolving turntable and sprayed with 100-110 milliliters of test compound formulation by use of a DeVilbiss spray gun set at 40 psig. air pressure. This application, which lasted 25 seconds, was sufficient to wet the plants to run-off. As a control, 100-110 milliliters of a water solution containing acetone and emulsifier in the same concentrations as the test compound formulation, but containing no test compound, were also sprayed on infested plants. The sprayed plants were held at 80±5 percent relative humidity for 6 days, after which a mortality count of motile forms was made. Microscopic examination for motile forms was made on the leaves of the test plants. Any individual which was capable of locomotion upon prodding was considered living.
as §1
Systemic treatments were made by drenching 20 milliliters of the test compound formulation into the soil around the roots of bean plants growing in 21/2 inch clay pots. […]

Values after ≈ are worked out from the molar mass of the structure shown.

From US4111955A, “N-Trihalomethanesulfenyl carbamoyloximino di-sulfur heterocyclic compounds” (priority 1976, dated 1978) come the findings set out here.

Consider `CN(SC(Cl)(Cl)Cl)C(=O)ON=C1CSCCS1` [2-[(N-METHYL-N-TRICHLOROMETHANESULFENYL)-CARBAMOYLOXIMINO]-1,4-DITHIANE], for which the LC50 in assay [1] (Epilachna varivestis, 72 h, leaf spray, Table II, read-out: Insect Toxicity, LD50, Mexican Bean beetle) is 10 mg/L (≈ 28.1 µM); in the assay on mites (Tetranychus urticae, systemic, soil drench, value in parentheses, read-out: Insect Toxicity, LD50, Mite, systemic activity), 3 mg/L (≈ 8.43 µM). The “insect toxicity on bean-beetle relative to the methylcarbamoyl composition” value in assay [1] (from LD50 values of Table II) was “five-fold improvement”. Moreover, the “pesticidal activity rating, Bean beetle” value in assay [1] (leaf spray, 500 parts per million, 3 days) is “A”. In the assay with mites, the “systemic activity relative to the methylcarbamoyl composition” value is “higher degree of systemic activity”.
